Experiments:
HIV-1NL4-3 [1] = experiment: HIV-1 replication assay (p24 […]) in A3.01 T cell line; type: cell-based; settings: A3.01 cells, HIV-1NL4-3 MOI 0.1, 1.5 μM, 72 h
Description: (§1) TZM-bl cells (also referred as JC53BL-13) expressing human CD4, CXCR4, and CCR5 in order to facilitate HIV-1 infection, which contain the firefly luciferase (F-Luc) gene under the control of HIV-1 long terminal repeat (LTR) promoter was used to determine inhibitory effect of the compounds on HIV-1 infection, as described previously with minor modifications. In brief, 1 × 10^4 cells were cultured in 96-well plates for 24 h and then treated with compounds at a final concentration of 3 μM (Figure 1A) or with 1:2 serially diluted compounds at concentrations ranging from 0 to 25 μM (dose-response assay; Figure 1B and Table 2). Without replacement of a culture medium, the cells were then infected with the HIV-1NL4-3 strain at a multiplicity of infection (MOI) of 1 to determine the exact inhibitory effect of compounds on a single round infection. After 48 h, the inhibitory effect of the compounds was determined using a Bright Glo luciferase assay kit (Promega). The infectivity data are presented as a percentage relative to the DMSO control (vehicle). The inhibitory effects of the compounds on viral replication were determined with some minor modifications, as described previously. In brief, 5 × 10^4 cells/ well of A3.01 cells were infected with HIV-1NL4-3 at an MOI of 0.1 with the spinoculation at 300 g for 2 h at 25 °C. PBMCs were pre-activated with phytohemagglutinin M (PHA-M) for 3 days. The pre-activated 4 × 10^5 of PBMCs were washed with fresh media to remove excess PHA-M and then infected with HIV-1NL4-3 or HIV-1AD8 as that of A3.01 infection. After infection, the infectious media were replaced with fresh media (supplemented with international 10 units (IU)/mL of IL-2 for PBMCs containing 1.5 μM of compounds. At 72 h after infection, the inhibitory effect of the compounds on viral replication was determined by measuring the amount of p24, an HIV capsid protein, using an HIV-1 p24 […]™ kit (PerkinElmer, Waltham, MA, USA). Cell viability was determined by using the resazurin-based PrestoBlue™ cell viability reagent (Thermo Fisher Scientific, Waltham, MA, USA) according to the manufacturer’s protocols.

Tat with TAR RNA = Tat with TAR RNA (Human immunodeficiency virus type 1 group M subtype B, UniProt P04608); experiment: Association of Tat with TAR RNA; set-up: species or system HIV-1; settings: manuscript in preparation [26]
[2] = tested on: Tat-mediated HIV-1 transcription; experiment: microbe, parasite or virus in culture; type: cell-based; settings: for IC50: Human immunodeficiency virus 1, 24 h, read-out: IC50 (inhibition of Tat-mediated HIV-1 transcription)
Description: (§2) bl-DTR (TZM-bl-derived dual Tat reporter) cells derived from TZM-bl cells by insertion of two doxycycline-inducible lentiviral vector-expressing flag-tagged tat and Renilla-luciferase (R-Luc) genes were used to determine simultaneously both activities of Tat-mediated HIV-1 transcription and general cellular transcription, as described previously. Determination of the inhibitory effect of the compounds on Tat-mediated transcription was performed as described previously. In brief, 1 × 10^4 of bl-DTR cells cultured in 96-well plates were treated with compounds at a final concentration of 3 μM (Figure 3C) or with 1:2 serially diluted compounds at concentrations ranging from 0 to 25 μM (Figure 4 and Table 3). Subsequently, doxycycline was treated at a final concentration of 50 ng/mL to induce Tat-mediated F-Luc and R-Luc. At 24 h after treatment, the activities of F-Luc and R-Luc were determined by using a Dual-Glo™ luciferase assay system (Promega, Madison, WI, USA) according to the manufacturer’s protocols. The data are presented as a percentage relative to the DMSO control (vehicle) in the presence of doxycycline, and the experiment was performed in triplicate.

HIV-1NL4-3 [3] = experiment: HIV-1 replication assay (p24 […]) in PBMCs, CXCR4 tropic strain; type: cell-based; settings: HIV-1NL4-3 MOI 0.1, 1.5 μM, 72 h
Description: as §1

Tat = experiment: Nuclear localization of Tat; type: cell-based, HIV-1; settings: manuscript in preparation [26]
Tat and cyclin T1 = Tat and cyclin T1 (Human immunodeficiency virus type 1 group M subtype B, UniProt P04608); experiment: Interaction between Tat and cyclin T1; settings: manuscript in preparation [26]
[4] = Cell viability (resazurin-based PrestoBlue) in parallel with infectivity assay; settings: human, TZM-bl cells; for viability at 48 h, 3 µM: with infection of HIV-1 NL4-3 at MOI of 1; for CC50 at 48 h: serial dilution starting from 100 μM, read-out: CC50 (concentration that reduces cell viability by 50%)
TZM-bl cells = experiment: as above; settings: 3 μM, with infection of HIV-1 NL4-3 at MOI of 1
HIV-1NL4-3 [5] = experiment: HIV-1 infectivity assay in TZM-bl cells (F-Luc under HIV-1 LTR); type: cell-based; settings: Human immunodeficiency virus 1, NL43, TZM-bl; for inhibition at 3 µM: 48 h, read-out: Inhibition of HIV-1 Infectivity (%), TZM-bl cells, 3 μM, HIV-1 NL4-3 at MOI of 1, 48 h; for IC50: read-out: IC50 (inhibition of HIV-1 infection)
Description: TZM-bl cells (also referred as JC53BL-13) expressing human CD4, CXCR4, and CCR5 in order to facilitate HIV-1 infection, which contain the firefly luciferase (F-Luc) gene under the control of HIV-1 long terminal repeat (LTR) promoter was used to determine inhibitory effect of the compounds on HIV-1 infection, as described previously with minor modifications. […] Without replacement of a culture medium, the cells were then infected with the HIV-1NL4-3 strain at a multiplicity of infection (MOI) of 1 to determine the exact inhibitory effect of compounds on a single round infection. After 48 h, the inhibitory effect of the compounds was determined using a Bright Glo luciferase assay kit (Promega). The infectivity data are presented as a percentage relative to the DMSO control (vehicle). The inhibitory effects of the compounds on viral replication were determined with some minor modifications, as described previously. […] PBMCs were pre-activated with phytohemagglutinin M (PHA-M) for 3 days. The pre-activated 4 × 10^5 of PBMCs were washed with fresh media to remove excess PHA-M and then infected with HIV-1NL4-3 or HIV-1AD8 as that of A3.01 infection.

HIV-1Ad8 = experiment: HIV-1 replication assay (p24 […]) in PBMCs, CCR5 tropic strain; type: cell-based; settings: CCR5 tropic HIV-1Ad8 MOI 0.1, 1.5 μM, 72 h
Description: TZM-bl cells (also referred as JC53BL-13) expressing human CD4, CXCR4, and CCR5 in order to facilitate HIV-1 infection, which contain the firefly luciferase (F-Luc) gene under the control of HIV-1 long terminal repeat (LTR) promoter was used to determine inhibitory effect of the compounds on HIV-1 infection, as described previously with minor modifications. In brief, 1 × 10^4 cells were cultured in 96-well plates for 24 h and then treated with compounds at a final concentration of 3 μM (Figure 1A) or with 1:2 serially diluted compounds at concentrations ranging from 0 to 25 μM (dose-response assay; Figure 1B and Table 2). Without replacement of a culture medium, the cells were then infected with the HIV-1NL4-3 strain at a multiplicity of infection (MOI) of 1 to determine the exact inhibitory effect of compounds on a single round infection. After 48 h, the inhibitory effect of the compounds was determined using a Bright Glo luciferase assay kit (Promega). The infectivity data are presented as a percentage relative to the DMSO control (vehicle). The inhibitory effects of the compounds on viral replication were determined with some minor modifications, as described previously. In brief, 5 × 10^4 cells/ well of A3.01 cells were infected with HIV-1NL4-3 at an MOI of 0.1 with the spinoculation at 300 g for 2 h at 25 °C. PBMCs were pre-activated with phytohemagglutinin M (PHA-M) for 3 days. […]

Tat protein = experiment: Cellular expression level of Tat protein; type: cell-based, HIV-1; settings: manuscript in preparation [26]
[6] = tested on: general cellular transcription; experiment: R-Luc activity in bl-DTR cells (general cellular transcription); type: cell-based; settings: high dosages (12.5 μM and 25 μM)
Description: as §2

[7] = target: HIV-1 reverse transcriptase (RTase) (Human immunodeficiency virus type 1 group M subtype B, UniProt P12497); settings: A3.01 cells, 10 μM, HIV-1NL4-3, 16 h after infection
Description: (forward) and 5′-[…] (reverse). […] (forward) and 5′-[…] (reverse).

Tat and cyclin T1, sequence (P04608 whole entry): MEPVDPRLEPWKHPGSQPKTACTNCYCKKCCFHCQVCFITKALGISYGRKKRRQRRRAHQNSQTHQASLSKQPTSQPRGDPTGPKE
Tat with TAR RNA, sequence (P04608 whole entry): as above

COC(=O)C1(C/C=C/Cl)Nc2cc(C)cc(C)c2C1=O (centres unmarked) [Compound 6f, Methyl (E)-2-(3-chloroallyl)-4,6-dimethyl-3-oxindole-2-carboxylate]
Inhibitory effect on viral replication (p24) (HIV-1NL4-3 [1]): near-complete abrogation | Inhibition of association of Tat with TAR RNA (Tat with TAR RNA): did not inhibit | IC50 [2]: 1.2 ± 0.04 µM | Concentration of complete inhibition of Tat-induced transcriptional activity ([2]; bl-DTR cells, concentration response): approximately 6 μM | melting point: > 300 °C | Inhibitory effect on viral replication (p24) (HIV-1NL4-3 [3]): near-complete abrogation | Inhibition of nuclear localization of Tat (Tat): did not inhibit | Inhibition of interaction between Tat and cyclin T1 (Tat and cyclin T1): did not inhibit | viability at 48 h, 3 µM [4]: 93 ± 5.39% | CC50 at 48 h [4]: 51 ± 4.44 µM | Cell Viability (%) (TZM-bl cells): without cytotoxicity | inhibition at 3 µM (HIV-1NL4-3 [5]): 91.9 ± 1.78% | IC50 (HIV-1NL4-3 [5]): 0.458 ± 0.0227 µM | Inhibitory effect on viral replication (p24) (HIV-1Ad8): inhibited replication | Inhibition of cellular expression level of Tat protein (Tat protein): did not inhibit

COC(=O)C1(CC=C(Cl)Cl)Nc2cc(C)cc(C)c2C1=O (centres unmarked) [Compound 6g, Methyl 2-(3,3-dichloroallyl)-4,6-dimethyl-3-oxindole-2-carboxylate]
Inhibitory effect on viral replication (p24) (HIV-1NL4-3 [1]): half inhibition | Inhibition of association of Tat with TAR RNA (Tat with TAR RNA): did not inhibit | IC50 [2]: 2.85 ± 0.63 µM | melting point: > 300 °C | Inhibitory effect on viral replication (p24) (HIV-1NL4-3 [3]): half inhibition | Inhibition of nuclear localization of Tat (Tat): did not inhibit | Inhibition of interaction between Tat and cyclin T1 (Tat and cyclin T1): did not inhibit | viability at 48 h, 3 µM [4]: 87.9 ± 0.82% | CC50 at 48 h [4]: 43.6 ± 10.5 µM | R-Luc activity [6]: decrease in R-Luc activity | inhibition at 3 µM (HIV-1NL4-3 [5]): 85.4 ± 1.44% | IC50 (HIV-1NL4-3 [5]): 1.28 ± 0.959 µM | Inhibitory effect on viral replication (p24) (HIV-1Ad8): inhibited replication | Inhibition of cellular expression level of Tat protein (Tat protein): did not inhibit

O=C1Nc2ccc(Cl)cc2[C@@](C#CC2CC2)(C(F)(F)F)O1 [EFV, efavirenz, reference compound]
CC50 at 48 h [4]: 34.2 ± 0.59 µM | Inhibition of RTase activity (level of HIV-1 RT product) [7]: inhibited | IC50 (HIV-1NL4-3 [5]): < 0.05 µM
